Laboratory results reported in US20080103191A1, “ENTACAPONE-DERIVATIVES” (priority 2006, published 2008).
≈ marks a conversion by molar mass, not a printed value. Read-outs that look alike come from different tables or passages of the source.

Key:
[1] = Permeability in Caco-2 cells, apical to basolateral; format: in vitro ADME; design: dose or concentration left out as unconfirmed; settings: human; 21d Caco-2 monolayer, apical pH 6.5 to basolateral pH 7.4, 60 minutes
Excerpt: The human adenocarcinoma cell line Caco-2 is used as an in vitro system to predict oral absorption. These cells serve as a model of small bowel tissue and permeation through these cells is a predictor for gastro-intestinal absorption. Further to being a model for oral absorption, permeability in Caco-2 cells may be predictive for the blood brain barrier permeability (P. Garberg et al.; Toxicology in vitro 19 (2005); 299-334). […] The permeability in Caco-2 cells has been tested by the following method:
The permeability of selected compounds of formula I across Caco-2 (21d Caco-2-culture) monolayer in the apical to basolateral direction is investigated. Control substances were ^3H-propranolol and ^3H-mannitol.
The nominal concentration of the test items is […]. The pH value is set to 6.5 for the apical transport medium and to 7.4 for the basolateral medium. Samples are obtained following 60 minutes (120 minutes for control samples) incubation from the basolateral receiver chamber. At sampling time approximately 600 μL of each well are transferred into an eppendorf vial and stored between −12° and −30° C. until HPLC or LC-MS/MS analysis. The control substances are quantified by liquid scintillation.

[2] = Log D (pH 7.4) by isocratic HPLC; format: physicochemical; settings: YMC Pro C18 column, phosphate buffer pH 7.4/acetonitrile 45/55
Protocol: LogD is an indicator for absorption and lipophilicity for ionized compounds under defined pH conditions and is measured by applying an isocratic HPLC Method at pH 7.4.
The log D has been tested at pH 7.4. The testing has been carried out by the following method: Isocratic HPLC method: Column YMC Pro C18, 150 mm×4.0 mm, 3 μm, Eluent Phosphate buffer pH 7.4/acetonitrile (45/55, (v/v)), Runtime 15-60 min, Flow rate 1.2 ml/min, Detection wavelength: 220 nm

[3] = Chemical hydrolysis stability at pH 1 and pH 7.4 (HPLC); format: physicochemical; settings: 37° C., over 12 h
Protocol: The stability of compounds of the present invention is tested at pH 1 and at pH 7.4. The testing is carried out by the following HPLC method:
Chemical hydrolysis rates t1/2 [h] of selected compounds of formula I are determined in 0.1 N HCl (pH 1) and PBS buffer (pH 7.4) solution. Solutions are prepared by dissolving an appropriate amount of compound in 0.1 N HCl and PBS buffer solution. Samples were withdrawn at designated time intervals and analysed for remaining prodrug by HPLC at 37° C. over 12 h.
Reversed phase gradient HPLC method, column YMC Pro C8, 50 mm×4.0 mm, 3 μm, Eluent A: Water:trifluoroacetic acid (100:0.5 (v/v)), Eluent B: Acetonitrile:trifluoroacetic:acid (100:0.5 (v/v)). Column temperature 30° C., Flow rate 3.0 mL/min, Detection wavelength: 220 nm
For evaluation, the peak area of the respective compound from the first injection is defined as 100% relative concentration. The peak areas of all other subsequent injections are calculated in percentage relating to this standard. (relative concentration in %). The relative concentrations are plotted in a logarithmic scale (ln) against the injection times. Based on the assumption of a first order kinetic, the rate constant and half life times (t1/2 [h]) can be calculated.

[4] = Solubility in 0.1 N HCl, PBS buffer, FaSSIF and FeSSIF; format: physicochemical; settings: thermodynamic from solid, ambient temperature
Protocol: For testing solubility, saturated solutions of selected compounds of formula I are prepared in four different systems and compared to the solubility of entacapone. The solubility is tested in 0.1 N HCl (pH 1), PBS buffer (pH 7.4) and in two simulated gastric fluids, FaSSIF at pH 6.5 (for fasting state) and FeSSIF at pH 5.0 (for fed state) at ambient temperature. The content of the FaSSIF simulated gastric fluid is as follows:
The solubility testing is carried out by the following method: An excess amount of each compound is added to a 0.1 N HCl, PBS buffer, FeSSIF and FaSSIF. The suspensions are shaken for 10 min. After centrifugation the concentration is determined by HPLC. Reversed phase gradient HPLC method, column YMC Pro C8, 50 mm×4.0 mm, 3 μm, Eluent A: Water:trifluoroacetic acid (100:0.5 (v/v)), Eluent B: Acetonitrile:trifluoroacetic:acid (100:0.5 (v/v)). Column temperature 30° C., Flow rate 3.0 mL/min, Detection wavelength: 220 nm

[5] = Plasma stability ex vivo; format: in vitro ADME; settings: human plasma, 37° C., read-out: t1/2 plasma
Protocol: Plasma stability is determined in human and rat plasma ex vivo. For the determination of the plasma stability of the compounds of formula I, the test compounds were incubated with human plasma (c=5 μg/mL) at 37° C. for certain time intervals up to 60, resp. 120 min (depending on the compound). Afterwards the incubations were stopped by equivalent addition of acetonitrile for protein precipitation, and the samples were mixed and centrifuged. The supernatants were adequately diluted and analyzed by HPLC with UV detection at 305 nm.
The degradation of the compounds of formula I as well as the formation of the active drug entacapone were monitored, and the half-life times of the compounds of formula I were calculated from the obtained peak areas.

[6] = pH 1, 0.1 N HCl, read-out: t1/2 at pH 1 (converted)
[7] = pH 7.4, PBS buffer, read-out: t1/2 at pH 7.4 (converted)
[8] = 0.1 N HCl, pH 1, simulated gastric fluid, shaken 10 min, read-out: Solubility 0.1N HCl Ph 1.0
[9] = FaSSIF, pH 6.5, fassif, fasting state fluid, read-out: Solubility FaSSIF Ph 6.5
[10] = FeSSIF, pH 5, fessif, fed state fluid, read-out: Solubility FeSSIF Ph 5.0
[11] = PBS buffer, pH 7.4, aqueous buffer, read-out: Solubility PBS Ph 7.4

| Papp A→B at 60 min [1] [×10⁻⁶ cm/s] | chromatographic logD [2] | half-life [3, 6] [h] | half-life [3, 7] [h] | solubility at 10 min [4, 8] [µg/mL] | solubility at 10 min [4, 9] [µg/mL] | solubility at 10 min [4, 10] [µg/mL] | solubility at 10 min [4, 11] [µg/mL] | half-life at 5 μg/mL [5] [min] | SMILES |
| --- | --- | --- | --- | --- | --- | --- | --- | --- | --- |
| < 5.1 | – | – | – | – | – | – | – | – | CCCCCOC(=O)Oc1cc(/C=C(\C#N)C(=O)N(CC)CC)cc([N+](=O)[O-])c1O [Compound 6, Carbonic acid 5-((E)-2-cyano-2-diethylcarbamoyl-vinyl)-2-hydroxy-3-nitro-phenyl ester pentyl ester] |
| – | 1.6 | 3 | 4.1 | 150 (≈ 341 µM) | 80 (≈ 182 µM) | 20 (≈ 45.5 µM) | 280 (≈ 637 µM) | – | CCN(CC)C(=O)/C(C#N)=C/c1cc(OC(=O)OCc2ccccc2)c(O)c([N+](=O)[O-])c1 [Compound 11, Carbonic acid benzyl ester 5-((E)-2-cyano-2-diethylcarbamoyl-vinyl)-2-hydroxy-3-nitro-phenyl ester] |
| 2.3 | – | < 1 | 2.8 | – | – | – | – | – | CCN(CC)C(=O)/C(C#N)=C/c1cc(OC(=O)OCC2COC(C)(C)O2)c(O)c([N+](=O)[O-])c1 (centres unmarked) [Compound 12, Carbonic acid 5-((E)-2-cyano-2-diethylcarbamoyl-vinyl)-2-hydroxy-3-nitro-phenyl ester 2,2-dimethyl-[1,3]dioxolan-4-ylmethyl ester] |
| < 5.1 | – | – | – | – | – | – | – | – | CCN(CC)C(=O)COC(=O)Oc1cc(/C=C(\C#N)C(=O)N(CC)CC)cc([N+](=O)[O-])c1O [Compound 18, Carbonic acid 5-((E)-2-cyano-2-diethylcarbamoyl-vinyl)-2-hydroxy-3-nitro-phenyl ester diethylcarbamoylmethyl ester] |
| 11.7 | – | – | – | – | – | – | – | – | CCN(CC)C(=O)/C(C#N)=C/c1cc(OC(=O)OC(C)(C)C(=O)OC)c(O)c([N+](=O)[O-])c1 [Compound 20, 2-[5-((E)-2-Cyano-2-diethylcarbamoyl-vinyl)-2-hydroxy-3-nitro-phenoxycarbonyloxy]-2-methyl-propionic acid methyl ester] |
| < 5.1 | – | – | – | – | – | – | – | – | CCOC(=O)C(C)(C)OC(=O)Oc1cc(/C=C(\C#N)C(=O)N(CC)CC)cc([N+](=O)[O-])c1O [Compound 26, 2-[5-((E)-2-Cyano-2-diethylcarbamoyl-vinyl)-2-hydroxy-3-nitro-phenoxycarbonyloxy]-2-methyl-propionic acid ethyl ester] |
| 14.6 | – | – | – | – | – | – | – | – | CCOC(=O)CC(C)OC(=O)Oc1cc(/C=C(\C#N)C(=O)N(CC)CC)cc([N+](=O)[O-])c1O (centres unmarked) [Compound 34, 3-[5-((E)-2-Cyano-2-diethylcarbamoyl-vinyl)-2-hydroxy-3-nitro-phenoxycarbonyloxy]-butyric acid ethyl ester] |
| – | 1 | 4.1 | < 1 | > 1000 | > 1000 | > 1000 | > 1000 | – | CCN(CC)CCOC(=O)Oc1cc(/C=C(\C#N)C(=O)N(CC)CC)cc([N+](=O)[O-])c1O [Compound 55, Carbonic acid 5-((E)-2-cyano-2-diethylcarbamoyl-vinyl)-2-hydroxy-3-nitro-phenyl ester 2-diethylamino-ethyl ester] |
| 8.5 | 1 | 16.5 | 4.1 | – | – | – | – | 1 | C=CCOC(=O)Oc1cc(/C=C(\C#N)C(=O)N(CC)CC)cc([N+](=O)[O-])c1O [Compound 65, Carbonic acid allyl ester 5-((E)-2-cyano-2-diethylcarbamoyl-vinyl)-2-hydroxy-3-nitro-phenyl ester] |
| 14.8 | 2.8 | 12.8 | 14.4 | – | – | – | – | 2.8 | CCN(CC)C(=O)/C(C#N)=C/c1cc(OC(=O)OC2CC3CCC2(C)C3(C)C)c(O)c([N+](=O)[O-])c1 (centres unmarked) [Compound 67, Carbonic acid 5-((E)-2-cyano-2-diethylcarbamoyl-vinyl)-2-hydroxy-3-nitro-phenyl ester 1,7,7-trimethyl-bicyclo[2.2.1]hept-2-yl ester] |
| 4.9 | 1.1 | 12.8 | 3 | 10 (≈ 24.9 µM) | 910 (≈ 2270 µM) | 430 (≈ 1070 µM) | 850 (≈ 2120 µM) | – | C#CCCOC(=O)Oc1cc(/C=C(\C#N)C(=O)N(CC)CC)cc([N+](=O)[O-])c1O [Compound 83, Carbonic acid but-3-ynyl ester 5-((E)-2-cyano-2-diethylcarbamoyl-vinyl)-2-hydroxy-3-nitro-phenyl ester] |
| – | 0.9 | 15.3 | 3.4 | 20 (≈ 41.4 µM) | 960 (≈ 1990 µM) | 710 (≈ 1470 µM) | 970 (≈ 2010 µM) | – | CCN(CC)C(=O)/C(C#N)=C/c1cc(OC(=O)OCc2ccc3c(c2)OCO3)c(O)c([N+](=O)[O-])c1 [Compound 131, Carbonic acid benzo[1,3]dioxol-5-ylmethyl ester 5-((E)-2-cyano-2-diethylcarbamoyl-vinyl)-2-hydroxy-3-nitro-phenyl ester] |
| – | 2.6 | 7.8 | 21.4 | – | 150 (≈ 331 µM) | 20 (≈ 44.1 µM) | 340 (≈ 750 µM) | – | CCN(CC)C(=O)/C(C#N)=C/c1cc(OC(=O)OC(C)c2ccccc2)c(O)c([N+](=O)[O-])c1 (centres unmarked) [Compound 137, Carbonic acid 5-((E)-2-cyano-2-diethylcarbamoyl-vinyl)-2-hydroxy-3-nitro-phenyl ester 1-phenyl-ethyl ester] |
| – | 1.7 | 11 | 12.2 | 30 (≈ 73.6 µM) | 630 (≈ 1550 µM) | 250 (≈ 614 µM) | 830 (≈ 2040 µM) | – | CCN(CC)C(=O)/C(C#N)=C/c1cc(OC(=O)OCC(=O)O)c(O)c([N+](=O)[O-])c1 [Compound 146, [5-((E)-2-Cyano-2-diethylcarbamoyl-vinyl)-2-hydroxy-3-nitro-phenoxycarbonyloxy]-acetic acid] |

| SMILES | Papp A→B at 60 min [1] [×10⁻⁶ cm/s] | chromatographic logD [2] | half-life [3, 6] [h] | half-life [3, 7] [h] | solubility at 10 min [4, 8] [µg/mL] | solubility at 10 min [4, 9] [µg/mL] | solubility at 10 min [4, 10] [µg/mL] | solubility at 10 min [4, 11] [µg/mL] | half-life at 5 μg/mL [5] [min] |
| --- | --- | --- | --- | --- | --- | --- | --- | --- | --- |
| CCN(CC)C(=O)/C(C#N)=C/c1cc(OC(=O)OCc2ccc([N+](=O)[O-])cc2)c(O)c([N+](=O)[O-])c1 [Compound 27, Carbonic acid 5-((E)-2-cyano-2-diethylcarbamoyl-vinyl)-2-hydroxy-3-nitro-phenyl ester 4-nitro-benzyl ester] | 18.1 | > 8 | 3.4 | 1.6 | – | – | – | – | > 8 |
